Reference: US6451796B1, “Fused pyrazine compounds” (Ono Pharmaceutical Co., Ltd., priority 1997, dated 2002)

Experiments:
Assay type in all cases: cell-based
[1] = system: VCAM-1 expression; experiment: Inhibition of VCAM-1 expression in HUVEC (cell ELISA); settings: Homo sapiens; HUVEC stimulated with TNFα plus IL-4 for 6 hours, ELISA of surface expression
Procedure: (§1) (1) Inhibition of Adhesion Molecules Expression in HUVEC
(§2) Human umbilical vein endothelial cells were cultured using MCDB104 medium (Nissui) containing 5% Fetal bovine serum supplemented antibiotics (100 U/ml penicillin, 100 μg/ml streptomycin (Gibco)), 0.01 mg/ml heparin (Nissui) and 0.005 mg/ml endothelial cells (EC) growth factor (Nissui) in gelatin coated 96-well microtiter plates by resulting in confluent monolayers.
(§3) The compounds were dissolved in dimethyl sulfoxide and prepared final 0.2% concentration in the medium and then added 50 μl into the well. Cytokine stimulation of EC was performed by adding 50 μl of 10 ng/ml TNFα (Genzyme) (for E-selectin. and ICAM-1 expression) or 50 μl of 10 ng/ml TNFα plus 1 ng/ml IL-4 (Genzyme)(for VCAM- expression).
(§4) After stimulation for 6 hours, the wells were washed with PBS(−) once and EC monolayers were fixed by incubating with methanol containing 0.3% hydrogen peroxide for 10 minutes at room temperature. After washing with PBS(−) three times, an ELISA was used to measure the expression of adhesion molecules on EC surface. The ELISA was performed at room temperature with three times washes with PBS(−) between each step. EC were incubated for 30 minutes in turn with 100 μl primary antibody which were anti-ICAM-1 antibody (BBA4), anti-E-selectin antibody (BBA2) or anti-VCAM-1 antibody (BBA6) (mouse IgG1, 1.25 μl/ml; R&D), with 100 μl of secondary antibody which was goat anti-mouse IgG conjugated peroxidase (dilution (1/400); Nordic Immunological laboratories). The enzyme substrate 1 mg/ml o-phenylenediamine/2HCl and 0.1% hydrogen peroxide of 100 μl was added and incubated for 4 minutes at room temperature.
(§5) Reaction was stopped with 50 μl of 8N sulfuric acid and optical density (OD) of each well read at 490 nm in immunoreder. Inhibitory percentage was calculated as follows and IC50 value was estimated by percentage for control.
(§6) Inhibitory percentage (%)=[(C−S)/(C−B)]×100
(§7) C: OD of the sample stimulated by cytokines
(§8) S: OD of the sample stimulated by cytokines in the presence of test compound
(§9) B: OD of the nonstimulated sample

[2] = system: ICAM-1 expression; experiment: Inhibition of ICAM-1 expression in HUVEC (cell ELISA); settings: Homo sapiens; HUVEC stimulated with TNFα for 6 hours, ELISA of surface expression
Procedure: as §1, §2, §3, §4, §5, §6, §7, §8, §9

[3] = system: E-selectin expression; experiment: Inhibition of E-selectin expression in HUVEC (cell ELISA); settings: Homo sapiens; HUVEC stimulated with TNFα for 6 hours, ELISA of surface expression
Procedure: as §1, §2, §3, §4, §5, §6, §7, §8, §9

[4] = Cytotoxicity test by MTT assay; settings: human; EC treated under conditions identical to adhesion molecule expression measurement; MTT 3 hours
Procedure: Furthermore, MTT [3-(4,5-dimethyl-2-thiazolyl)-2,5-diphenyl-2H-tetrazolium bromide] assay was enforced and the number of living cells was counted in order to estimate the effect of compound not to depend cytotoxicity on the above evaluation system.
(2) Cytotoxicity Test by MTT Assay
EC Were treated under conditions identical to those employed for measurement of adhesion molecules expression. After incubation, the wells were washed with PBS(−) once, added 100 μl of MTT solution (1 mg/ml) and incubated for 3 hours. After incubation supernatants were discarded and 100 μl of methanol added. After stirring, OD of each well read at 570 nm/690 nm in immunoreader. Inhibitory percentage was calculated as follows and IC50 value was estimated by percentage for control.
Inhibitory percentage (%)=[(C−S)/C)]×100
as §7, §8

| Structure (SMILES) | IC50 [1] [µM] | IC50 [2] [µM] | IC50 [3] [µM] | IC50 [4] [nM] |
| --- | --- | --- | --- | --- |
| FC(F)(F)c1nnc2c(Sc3ccccc3)nc3ccccc3n12 [Compound (12), 4-Phenylthio(5-trifluoromethyl-1,2,4-triazolo)-[4,3-a]quinoxaline] | 0.95 | 0.95 | 1.04 | > 50000 |
| CC(C)Sc1nc2cccnc2n2c(C(F)(F)F)nnc12 [Example 3(16), 4-Isopropylthio-(5-trifluoromethyl-1,2,4-triazolo)[3,4-c]1,4,5-triazanaphthalene] | 0.032 | 0.073 | 0.103 | > 100000 |
| OCCCCCSc1nc2ccc(Cl)cc2n2c(C(F)(F)F)nnc12 [Example 3(73), 8-Chloro-4-(5-hydroxypentyl)thio-(5-trifluoromethyl-1,2,4-triazolo)[4,3-a]quinoxaline] | 0.2 | 0.4 | 0.6 | > 25000 |
